Experimental data taken from patent US20140315834A1 (Medicon Pharmaceuticals, Inc., priority 2012, published 2014).
Like-named read-outs stand apart in the source and are kept apart here. One block for each compound: values may come before it.

How the values were obtained:
CYP 2C19 = CYP 2C19 (Homo sapiens, UniProt P33261); details: 37° C., NADPH-regenerating solution
CYP 1A2 = CYP 1A2 (Homo sapiens, UniProt P05177); details: 37° C., NADPH-regenerating solution
CYP 3A4 = CYP 3A4 (Homo sapiens, UniProt P08684); details: 37° C., NADPH-regenerating solution
Chain of CYP 3A4 (P08684 whole entry): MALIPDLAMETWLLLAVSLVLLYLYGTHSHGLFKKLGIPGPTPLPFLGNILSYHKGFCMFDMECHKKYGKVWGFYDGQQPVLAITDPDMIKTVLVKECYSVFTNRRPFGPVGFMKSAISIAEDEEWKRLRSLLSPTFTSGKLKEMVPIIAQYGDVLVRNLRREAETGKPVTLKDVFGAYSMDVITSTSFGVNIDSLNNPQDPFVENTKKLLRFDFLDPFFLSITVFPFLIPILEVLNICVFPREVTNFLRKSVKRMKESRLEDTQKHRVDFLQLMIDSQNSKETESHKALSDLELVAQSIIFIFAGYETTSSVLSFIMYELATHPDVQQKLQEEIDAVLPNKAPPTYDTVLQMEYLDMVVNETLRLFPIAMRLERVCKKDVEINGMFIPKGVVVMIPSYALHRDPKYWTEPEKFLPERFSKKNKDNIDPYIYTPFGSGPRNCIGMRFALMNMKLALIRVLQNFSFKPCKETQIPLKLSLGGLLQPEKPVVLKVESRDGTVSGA

CYP 2C9 = CYP 2C9 (Homo sapiens, UniProt P11712); details: 37° C., NADPH-regenerating solution
Chain of CYP 2C9 (P11712 whole entry): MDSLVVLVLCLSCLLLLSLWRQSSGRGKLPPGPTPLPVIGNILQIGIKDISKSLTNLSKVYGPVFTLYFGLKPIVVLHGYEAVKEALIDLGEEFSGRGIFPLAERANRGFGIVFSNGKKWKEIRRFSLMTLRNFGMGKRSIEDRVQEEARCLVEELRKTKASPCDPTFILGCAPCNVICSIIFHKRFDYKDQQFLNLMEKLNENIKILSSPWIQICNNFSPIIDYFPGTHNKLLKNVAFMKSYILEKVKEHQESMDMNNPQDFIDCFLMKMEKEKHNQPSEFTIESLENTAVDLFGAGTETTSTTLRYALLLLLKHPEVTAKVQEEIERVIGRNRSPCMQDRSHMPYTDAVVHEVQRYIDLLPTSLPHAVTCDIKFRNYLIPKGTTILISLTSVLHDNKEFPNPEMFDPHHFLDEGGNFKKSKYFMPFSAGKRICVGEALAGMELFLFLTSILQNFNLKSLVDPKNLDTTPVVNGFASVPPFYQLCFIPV

[1] = test system: MDA-MB-231 human BC cells; assay: Orthotopic MDA-MB-231 breast cancer xenografts, prevention; format: in vivo, mice
CYP 2D6 = CYP 2D6 (Homo sapiens, UniProt P10635); details: 37° C., NADPH-regenerating solution
Chain of CYP 2D6 (P10635 whole entry): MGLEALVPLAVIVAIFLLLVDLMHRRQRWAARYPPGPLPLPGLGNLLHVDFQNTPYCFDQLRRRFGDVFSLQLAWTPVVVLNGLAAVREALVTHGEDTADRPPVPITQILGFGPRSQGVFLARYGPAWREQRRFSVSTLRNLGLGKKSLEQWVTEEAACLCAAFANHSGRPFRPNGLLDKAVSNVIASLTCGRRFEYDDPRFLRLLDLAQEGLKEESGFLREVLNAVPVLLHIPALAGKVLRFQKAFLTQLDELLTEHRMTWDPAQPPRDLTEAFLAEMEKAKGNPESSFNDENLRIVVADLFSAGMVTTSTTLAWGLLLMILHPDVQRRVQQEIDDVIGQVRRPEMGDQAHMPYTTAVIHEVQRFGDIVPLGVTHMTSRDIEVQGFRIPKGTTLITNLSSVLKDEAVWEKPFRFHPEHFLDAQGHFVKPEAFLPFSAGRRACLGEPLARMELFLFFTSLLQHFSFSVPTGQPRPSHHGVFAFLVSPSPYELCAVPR

[2] = test system: U87 glioblastoma cell line; assay: 24-hour growth inhibition of glioblastoma cells; format: cell-based; details: read-out: 24-h 1c50
[3] = Pharmacokinetics of PI-PEG and PI, i.p.; format: in vivo, mice; details: equimolar doses
A431 skin cancer cells = assay: Cellular uptake, intracellular level by HPLC; details: 1 hour incubation
p-c-RAF = assay: Immunostaining of xenograft tissue sections, p-c-RAF; format: in vivo, mice; details: MIA PaCa-2 xenograft tissue sections
[4] = test system: Ras (Ras-GTP) in Panc-1 cells; assay: Ras-GTP pull down assay in cells; format: cell-based
Text: In the following experiments it was examined whether the pancreatic cancer growth inhibitory effect of P-FTS 67 is associated with down regulation of Ras signaling. For this purpose, the Ras-GTP pull down assay was used.

MIA PaCa-2 cells = assay: MIA PaCa-2 pancreatic cancer xenografts; format: in vivo, mice; details: for reduction of tumor volume growth: day 25
Experimental: The in vivo chemotherapeutic potential of P-FTS 67 was assessed using a pancreatic cancer xenograft model. MIA PaCa-2 cells were injected subcutaneously into the flank areas of nude mice. When palpable tumors were observed, the mice received P-FTS 67, 50 or 100 mg/kg/d by oral gavage in corn oil or just corn oil (control) for 25 days. On day 25 of treatment, P-FTS 67, 50 mg/kg/d, and P-FTS 67, 100 mg/kg/d reduced the tumor volume growth by 62% and 65%, respectively (p <0.05; FIG. 27).

p-ERK1/2 = assay: Immunostaining of xenograft tissue sections, p-ERK1/2; format: in vivo, mice; details: MIA PaCa-2 xenograft tissue sections
[5] = Sub-chronic toxicity of P-FTS, 3 weeks oral gavage; format: in vivo, mice
Experimental: The toxicity of P-FTS in mice was further examined. Groups of 6 week-old female BALB/c mice (5 mice/group) were given by oral gavage once a day for 3 weeks P-FTS: 0, 75, 150, 250 and 350 mg/kg. […] The (sub-chronic) maximum tolerated dose of P-FTS 67 (3-week period of observation) was determined to be at least 350 mg/kg/d.

[6] = test system: active Ras in MIA PaCa-2 xenografts; assay: Ras-GTP pull down assay in xenograft lysates; format: in vivo, mice
Experimental: The inhibition of Ras by P-FTS 67 was further confirmed in vivo. The Ras-GTP pull down assay was used to test the capacity of P-FTS 67 to inhibit active Ras in fresh protein lysates from MIA PaCa-2 xenografts. Compared to controls, P-FTS 67, 50 and 100 mg/kg reduced RAS activation in xenografts by 62% and 70%, respectively (p<0.01, for both; FIG. 30A).

[7] = test system: AsPC-1, CFPAC-1, Capan-2, Panc-1 and MIA PaCa-2; assay: Growth of human pancreatic cancer cell lines, 24 hours; format: cell-based; details: escalating concentrations, all cell lines
Experimental: Cell growth was determined in the human pancreatic cancer cell lines AsPC-1, CFPAC-1, Capan-2, Panc-1 and MIA PaCa-2 after treatment with escalating concentrations of P-FTS 67 for 24 hours.

SW480 colon cancer cells = assay: SW480 xenografts, prevention of colon cancer; format: in vivo, mice; details: 10 mg/kg/day oral gavage, 43 days, end of study
Experimental: Six-week-old female athymic nude mice, i.e. lacking a thymus gland and having no T-cells (Taconic Farms, Germantown, N.Y.; in =6/group) were treated by oral gavage of PTI 10 mg/kg/day, or vehicle (corn oil) for a total of 43 days. Five days later, 1.2×10^6 SW480 colon cancer cells suspended in 100 μl of phosphate buffered saline (PBS) were inoculated subcutaneously to each flank of the mice. Tumor size was monitored by measuring the length (L) and width (W) with a digital caliper and the volume was calculated according to the formula, L×W×(L+W/2)×0.56.

[8] = Pharmacokinetics of PTI, plasma levels after i.p. dose
[9] = Gastrointestinal toxicity, gastric ulcers by H&E staining
[10] = Cardiotoxicity, histology of heart tissue sections; format: in vivo, mice; details: treated for about 1.5 months
Text: Heart tissue sections from mice treated with PTI for about 1.5 months were examined histologically.

[11] = test system: Salmonella Typhimurium (TA98 and TA100); assay: Genotoxicity, reverse mutation with and without rat liver S9; details: TA98 and TA100, presence and absence of rat liver S9
in vivo = details: wt (wild type) and nude, mouse, po
[12] = Maximum tolerated dose of PA-III; set-up: species or system mice; details: mouse, in vivo
Experimental: The ability of phospho-aspirin III (PA-III) 506 to prevent breast cancer (BC) was evaluated using MDA-MB-231 human BC cells xenografted into one of the mammary glands of nude mice (orthotopic xenografts). PA was administered orally, 120 mg/kg/d 1 week prior to inoculating the cells (the standard prevention protocol); acetylsalicylic acid (ASA) was given at an equimolar dose of 40 mg/kg/d. This was the highest dose of ASA that these mice could tolerate on a long-term basis. The dose of PA-III 506 represents <10% of its maximum tolerated dose (MTD>1,600 mg/kg), but was chosen so that a comparison between PA-III 506 and ASA was possible.

[13] = Levels of PA-III and metabolites in blood and xenografts by HPLC; format: in vivo; details: mice treated with PA-III 506
[14] = set-up: AUC in lung: unit not given beside the values; details: mouse, in vivo, inhaled or intranasal
[15] = mouse, in vivo, po, 100 mg/kg
[16] = test system: A549 human lung cancer xenografts; assay: A549 sc xenografts, i.v. PS in nanocarrier vs sulindac; format: in vivo, mice; details: equimolar dose of sulindac 40 mg/kg
[17] = Pharmacokinetics of phosphosulindac amide, single oral dose; details: after single oral dose 100 mg/kg PSA 95
[18] = rat, in vivo
[19] = 120 mg/kg/d orally, 20 treated mice

Chain of CYP 2C19 (P33261 whole entry): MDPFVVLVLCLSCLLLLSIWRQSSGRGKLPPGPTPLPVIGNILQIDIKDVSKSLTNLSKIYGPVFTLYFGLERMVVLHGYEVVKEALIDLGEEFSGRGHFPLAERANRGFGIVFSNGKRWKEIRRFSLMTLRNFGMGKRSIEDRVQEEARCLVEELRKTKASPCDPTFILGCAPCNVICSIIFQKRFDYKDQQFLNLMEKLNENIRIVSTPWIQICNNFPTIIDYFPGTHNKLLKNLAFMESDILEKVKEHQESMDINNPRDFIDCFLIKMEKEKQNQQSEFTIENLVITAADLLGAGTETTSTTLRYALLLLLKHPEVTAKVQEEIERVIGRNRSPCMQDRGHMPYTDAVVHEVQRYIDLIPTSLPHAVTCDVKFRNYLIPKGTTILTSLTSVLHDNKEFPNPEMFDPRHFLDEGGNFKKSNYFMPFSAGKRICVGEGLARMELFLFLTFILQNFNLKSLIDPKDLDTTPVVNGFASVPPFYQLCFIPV
Chain of CYP 1A2 (P05177 whole entry): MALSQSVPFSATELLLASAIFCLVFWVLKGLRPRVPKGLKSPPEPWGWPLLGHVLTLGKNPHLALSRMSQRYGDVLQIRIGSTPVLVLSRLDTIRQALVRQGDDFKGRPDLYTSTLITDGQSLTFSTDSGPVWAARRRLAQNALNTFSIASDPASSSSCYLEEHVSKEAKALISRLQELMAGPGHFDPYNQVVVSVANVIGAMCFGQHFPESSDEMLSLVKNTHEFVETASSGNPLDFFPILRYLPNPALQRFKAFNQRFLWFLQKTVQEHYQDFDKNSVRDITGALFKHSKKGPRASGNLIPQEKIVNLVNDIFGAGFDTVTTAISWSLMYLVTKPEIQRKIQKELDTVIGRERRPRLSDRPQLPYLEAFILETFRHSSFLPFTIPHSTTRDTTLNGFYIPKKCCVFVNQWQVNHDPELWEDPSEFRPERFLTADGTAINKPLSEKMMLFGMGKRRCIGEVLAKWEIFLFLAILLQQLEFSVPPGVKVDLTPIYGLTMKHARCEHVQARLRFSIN

SMILES: CCOP(=O)(OCC)OCCCCOC(=O)C(C)c1ccc(CC(C)C)cc1 (stereo not drawn) [Compound 2, phospho-ibuprofen]
IC50 ([2]; 24 h): 98 µM
stability and circulation in blood [3]: rapidly hydrolyzed
level inside the cells (A431 skin cancer cells; 100 pM): 750 pM
increase over the other two compounds (A431 skin cancer cells; limit of detection 2.5 pmol): ≥ 300 fold

SMILES: CCOP(=O)(OCC)OCCCCOC(=O)c1ccccc1SC/C=C(\C)CC/C=C(\C)CCC=C(C)C [Compound 67]
reduction of expression of p-c-RAF (p-c-RAF): 73%
inhibition of active Ras (Ras-GTP) [4]: significantly inhibited
reduction of tumor volume growth (MIA PaCa-2 cells; 50 mg/kg/d oral gavage): 62%
reduction of tumor volume growth (MIA PaCa-2 cells; 100 mg/kg/d oral gavage): 65%
tolerability in the efficacy study (MIA PaCa-2 cells; 50 or 100 mg/kg/d oral gavage, 25 days): well tolerated
reduction of expression of p-ERK1/2 (p-ERK1/2): 71%
weight loss or other signs of toxicity ([5]; 75, 150, 250 and 350 mg/kg oral gavage once a day for 3 weeks): no weight loss or other signs of toxicity
(sub-chronic) maximum tolerated dose ([5]; oral gavage once a day, 3-week period of observation): at least 350 mg/kg/d
reduction of RAS activation in xenografts ([6]; 50 mg/kg): 62%
reduction of RAS activation in xenografts ([6]; 100 mg/kg): 70%
pancreatic cancer cell growth, % control [7]: decreases pancreatic cancer cell growth in a concentration-dependent manner

SMILES: CCOP(=O)(OCC)OCCc1ccc(OC(=O)Cc2c(C)n(C(=O)c3ccc(Cl)cc3)c3ccc(OC)cc23)cc1 [Compound 93]
reduction of tumor growth (SW480 colon cancer cells): 85%
AUCtotal of PTI relative to indomethacin ([8]; FIG. 19, equimolar i.p. doses): about 3.5 times
time at which PTI became undetectable post administration ([8]; single i.p. dose 100 mg/kg PTI): 4 h
time of maximum concentration of PTI ([8]; single i.p. dose 100 mg/kg PTI): 2 h
gastric damage, H&E stained gastric tissue sections ([9]; FIG. 18A): not
reduction of ulcers compared to indomethacin ([9]; day 5, PTI 10 mg/kg/day): 60%
rats that developed ulcers ([9]; day 5, gavage 4 days, indomethacin 4.75 mg/kg/day, PTI 10 mg/kg/day): 40%
heart histology vs healthy control mice [10]: no differences
genotoxicity [11]: no genotoxicity

SMILES: CCOP(=O)(OCC)OCC(CNC(=O)CC1=C(C)/C(=C/c2ccc([S+](C)[O-])cc2)c2ccc(F)cc21)OP(=O)(OCC)OCC (stereo not drawn) [Compound 99, (Z)-tetraethyl 3-(2-(5-fluoro-2-methyl-1-(4-(methylsulfinyl)benzylidene)-1H-inden-3-yl)acetamido)propane-1,2-diyl diphosphate]
MTD at 1 week (in vivo): > 500 mg/kg/day

SMILES: CCOP(=O)(OCC)OCCCCOC(=O)c1ccccc1OC(C)=O [PA-III 506, phospho-aspirin]
maximum tolerated dose (MTD) [12]: > 1,600 mg/kg
intact compound in plasma or xenografts [13]: No intact PA-III 506 in either plasma or xenografts was detected
reduction of average tumor volume compared to controls ([1]; 120 mg/kg/d orally): 62%
treated mice that had no tumors [1, 19]: 20%
treated mice that had tumors <100 mm^3 [1, 19]: 30%

SMILES: CC1=C(CC(=O)O)c2cc(F)ccc2/C1=C\c1ccc([S+](C)[O-])cc1 (stereo not drawn) [Sulindac, sulindac, reference compound]
IC50 ([2]; U87, 24-hour growth inhibition): ≥ 1000 µM
inhibition of growth of xenografts [16]: 32%
metabolite generated by PSA 95 [17]: no detectable

SMILES: CC(C)Cc1ccc(C(C)C(=O)OCCCCOP(=O)(O)O)cc1 (stereo not drawn) [phospho-ibuprofen phosphate 505]
accumulation in A431 cells (A431 skin cancer cells; limit of detection 2.5 pmol): no significant accumulation

The next lines start with results.

oxidation (conversion to 5-OH-PSA) by CYP 2C19 (CYP 2C19): cannot be oxidized
oxidation by CYP 1A2 (CYP 1A2): cannot be oxidized
oxidation by CYP 3A4 (CYP 3A4): cannot be oxidized
oxidation by CYP 2C9 (CYP 2C9): cannot be oxidized
oxidation (conversion to 5-OH-PSA) by CYP 2D6 (CYP 2D6): cannot be oxidized
SMILES: CC(=O)Oc1ccccc1C(=O)O [ASA, acetylsalicylic acid]
effect on BC xenograft growth ([1]; 40 mg/kg/d): no effect

AUC in lung [14]: 57.5
Tmax in lung [14]: 8 h
Tmax in plasma [14]: 8 h
metabolite generated by PSA 95 [15]: no detectable
SMILES: CC1=C(CC(=O)O)c2cc(F)ccc2/C1=C\c1ccc(S(C)(=O)=O)cc1 [Sulindac sulfone, sulindac sulfone]

IC50 ([2]; U87, 24-hour growth inhibition): ≥ 1000 µM
accumulation in A431 cells (A431 skin cancer cells; limit of detection 2.5 pmol): no significant accumulation
SMILES: CC(C)Cc1ccc(C(C)C(=O)O)cc1 (stereo not drawn) [ibuprofen, reference compound]

Tmax ([8]; mouse, plasma, ip, 58 mg/kg): 1 h
SMILES: COc1ccc2c(c1)c(CC(=O)O)c(C)n2C(=O)c1ccc(Cl)cc1 [indomethacin, reference compound]
gastric damage, H&E stained gastric tissue sections [18]: caused gastric damage
